In one data set the target is T1, RORγ (Homo sapiens, UniProt P51449).
T1 construct: expressed in transfected cells
T1 sequence (P51449 1-497 isoform P51449-2): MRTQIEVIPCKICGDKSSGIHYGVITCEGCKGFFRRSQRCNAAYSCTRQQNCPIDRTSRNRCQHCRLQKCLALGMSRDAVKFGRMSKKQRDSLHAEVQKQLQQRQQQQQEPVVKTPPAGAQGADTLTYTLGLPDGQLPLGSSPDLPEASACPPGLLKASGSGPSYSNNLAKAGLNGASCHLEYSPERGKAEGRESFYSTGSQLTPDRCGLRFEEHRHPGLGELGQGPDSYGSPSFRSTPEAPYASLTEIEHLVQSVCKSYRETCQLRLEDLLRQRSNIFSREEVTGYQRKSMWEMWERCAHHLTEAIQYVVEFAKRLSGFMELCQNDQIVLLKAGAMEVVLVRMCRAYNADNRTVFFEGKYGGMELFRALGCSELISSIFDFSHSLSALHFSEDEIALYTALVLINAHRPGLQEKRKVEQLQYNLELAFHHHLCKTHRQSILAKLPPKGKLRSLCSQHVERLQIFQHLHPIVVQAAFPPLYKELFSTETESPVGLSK
Kind of data set: Jurkat cell luciferase assay (human IL17 promoter reporter, RORγt overexpression). Format: cell-based. Conditions: mean pIC50; detection limit of the assay 5. An excerpt: RORγ is known to bind to a CNS (conserved non-coding sequences) enhancer element in the IL17 promoter. In this assay, RORγ activity is indirectly assessed using a luciferase reporter construct which contains the human IL17 promoter having the RORγ-specific CNS enhancer element. Inhibition of RORγ activity by a compound will result in a decrease in luciferase activity of Jurkat cells transfected with the reporter construct.
. For the 1.1 Kb fragment, PCR was used to amplify human IL17 proximal promoter region from genomic DNA of 293T cells using primers as follows: forward primer, 5′-[…]-3′ (SEQ ID NO. 4) (Xhol site is underlined) and reverse primer, 5′-[…]-3′ SEQ ID NO. 5) (HindIII site is underlined). The 1.1 kb DNA bands were excised, purified, and inserted into pMD19-T Simple Vector (Takara). After DNA sequencing confirmation, the 1.1 kb DNA was digested with XhoI and HindIII and inserted into XhoI/HindIII sites of pGL4.31[luc2P/GAL4UAS/Hygro] (Promega) to generate the pIL17-lkb-luc reporter construct. For the 1.9 Kb fragment, PCR was used to amplify human IL17 promoter region from genomic DNA using primers as follows: forward primer, 5′-[…]-3′ (SEQ ID NO. 6) (KpnI site is underlined) and reverse primer, 5′-[…]-3′ (SEQ ID NO. 7)(XhoI site is underlined). The resulting 1.9 kb DNA bands were excised, gel purified, and cloned into a pMD19-T Simple Vector (Takara). […] The 1.9 kb DNA fragment was released by double digestion with KpnI and XhoI and inserted into pIL17-lkb-luc to generate the luciferase reporter plasmid “pIL17-3kb-CNS-luc.” To overexpress RORγt, the full-length cDNA of human RORγt identical to the published sequence NM13 001001523 was cloned into pcDNA3.1 at the KpnI-NotI cloning sites to generate the RORγt overexpression plasmid “CDNA3.1DhRORγ49-8”. […]
Compounds were dissolved in DMSO at three concentrations, 10 mM, 400 uM and 16 uM, and were dispensed into 384-wells assay plate at 40 nl, 12.5 nl, 5 nl respectively. The volume was adjusted with pure DMSO to a give a final uniform volume of 40 nl Jurkat cells described above were counted and centrifuged. […]

A further data set has as its system Mouse CD4+ cells. Kind of data set: Th17 cell differentiation assay (IL-17 ELISA). The following applies: table with percutaneous study. Type of data set: cell-based. The procedure:
Mouse CD4+cells were purified using the CD4+ T Cell Isolation II Kit according to manufacturer's instructions (Miltenyi Biotec). 96 well plates were pre-coated with anti-mCD3 antibody. Un-coated wells were used as controls. CD4+ Cells were resuspended in RPMI 1640 complete medium and were added to the 96-well plates. Cytokine cocktail and the compound were then added to the wells. Antibodies and cytokines (all from R&D Systems) used in the assay were selected from the following: anti-mCD3; anti-mCD28; anti-mIFNγ; anti-mIL4; mIL-6; mIL-23; mIL-1β; hTGF-β1. The culture was incubated at 37° C. for 3 days and supernatants were collected for ELISA. The IL-17 ELISAs were performed according to manufacturer's instructions (R&D Systems). The results were analyzed using Prism software with non-linear regression to determine pIC50.
A general note: ELISA stands for enzyme-linked immunosorbent assay.

Data set [1] can be described thus: In vitro percutaneous study (Franz diffusion cells, aqueous cream). Type of data set: in vitro ADME, human. Conditions: 1.0% w/w in aqueous cream pH=6, 5 mg/cm^2, human skin from three donors. The source says: The in vitro percutaneous study is aimed to predict the level of percutaneous penetration obtained for a compound in a topical formulation for psoriasis. This assay coupled with the intrinsic potency of the compound are used to predict the likelihood of success of a compound to engage the target. The higher the ratio of the percutaneous penetration to the intrinsic potency, the higher the ratio of local skin concentration to the intrinsic potency and therefore the higher the chance of a compound to engage the target in a topical formulation.
The compounds were manufactured in a modified aqueous cream at pH=6.
The study was conducted with dermatomed abdominal human skin sourced from three skin donors using 2 cm2 Franz diffusion cells. The receiving fluid consisted of Bovine serum albumin (4% w/v) in 0.1% w/v sodium azide in Phospate Buffer Saline and was heated at 37° C. in order to obtain 32° C. at the skin surface. The cream formulation was applied on the donor side at a 10 mg dose, i.e. 5 mg/cm^2. The samples taken at the following time points: t=0, 3, 6, 9 and 24 h. The receiver samples were then assayed using a method based upon protein precipitation with acetonitrile followed by LC/MS/MS analysis. The percutaneous flux (in ng/cm^2/hr) was determined using the individual API (in a multiple composition) that had permeated into the receiver compartment over 24 hrs per cm^2.

[2] abbreviates: read-out: Th17 cell differentiation assay IC50.
[3] abbreviates: read-out: Th17 cell differentiation assay pIC50 (converted).

These results are taken from patent US10005731B2, “Modulators of the retinoid-related orphan receptor gamma (ROR-gamma) for use in the treatment of autoimmune and inflammatory diseases” (Glaxo Group Limited, priority 2012, dated 2018).

pIC50: −log10 of the molar value. Read-outs that look alike come from different tables or passages of the source. A value given as a limit tells only on which side of the number the result lay.

Turning to `Cc1cnc(C(=O)Nc2cc(F)cc(CN3CCN(C(=O)C4CCCC4)[C@@H](C)C3)c2C)cn1` [Example 36, (S)-N-(3-((4-(cyclopentanecarbonyl)-3-methylpiperazin-1-yl)methyl)-5-fluoro-2-methylphenyl)-5-methylpyrazine-2-carboxamide], the pIC50 on RORγ is less than 5.00.
Consider `Cc1ccc(C(=O)Nc2cc(F)cc(CN3CCN(C(=O)CC4CCC4)[C@@H](C)C3)c2C)cn1` [Example 163, (S)-N-(3-((4-(2-cyclobutylacetyl)-3-methylpiperazin-1-yl)methyl)-5-fluoro-2-methylphenyl)-6-methylnicotinamide], for which the IC50 with Mouse CD4+ cells (setting [2]) was 0.0114 µg/mL; with Mouse CD4+ cells (setting [3]), 25.1 nM. Also, the “Flux over 24 hrs” value in data set [1] came out at 7.73 ng/cm^2/hr.
As for `Cc1ccc(C(=O)Nc2cc(F)cc(CN3CCN(C(=O)C4CC(C)(C)C4)[C@@H](C)C3)c2C)cn1` [Example 164, (S)-N-(3-((4-(3,3-dimethylcyclobutanecarbonyl)-3-methylpiperazin-1-yl)methyl)-5-fluoro-2-methylphenyl)-6-methylnicotinamide], the IC50 with Mouse CD4+ cells (setting [2]) is 0.0093 µg/mL; in the data set with Mouse CD4+ cells (setting [3]), 20 nM. The “Flux over 24 hrs” value in data set [1] was determined as 3.12 ng/cm^2/hr.

What is called pIC50 is −log10 of the IC50, conventionally taken in molar units. Higher therefore signals a low IC50.
